Data reported in patent publication US20250171516A1, “PEPTIDE ACIDS AS A GLP1R AGONIST AND ANTIBODY-DRUG CONJUGATES THEREOF” (Regeneron Pharmaceuticals, Inc., priority 2023, published 2025).
Non-standard residues stand in square brackets, D forms with d. Groups on a side chain read outwards from the residue. No end group written: not given here. AA10 = not defined here; AA1 = not defined here; AA2 = not defined here; AA6 = not defined here; AA9 = not defined here

Tests used:
[1] = Metabolite study in human liver S9 (high resolution LC-MS); type: in vitro ADME
Procedure: Metabolite studies were conducted using Q-M3190 and Q-6009 (Q is Glutamine).
Liver S9 is the supernatant obtained by grinding and centrifuging the liver cells. The enzymes content is lower compared to Hepatocytes. It mainly contains CYP enzymes and some biphasic enzymes (but no biphasic coenzyme), so additional coenzyme (NADPH and UDPGA, etc.) is needed to mediate the biphasic reaction.

GLP-1R [2] = target: T1, GLP-1R (Homo sapiens, UniProt P43220); test: GLP-1R cAMP assay of peptides (Tables 10, 14, 15); type: cell-based
T1 sequence (P43220 24-463): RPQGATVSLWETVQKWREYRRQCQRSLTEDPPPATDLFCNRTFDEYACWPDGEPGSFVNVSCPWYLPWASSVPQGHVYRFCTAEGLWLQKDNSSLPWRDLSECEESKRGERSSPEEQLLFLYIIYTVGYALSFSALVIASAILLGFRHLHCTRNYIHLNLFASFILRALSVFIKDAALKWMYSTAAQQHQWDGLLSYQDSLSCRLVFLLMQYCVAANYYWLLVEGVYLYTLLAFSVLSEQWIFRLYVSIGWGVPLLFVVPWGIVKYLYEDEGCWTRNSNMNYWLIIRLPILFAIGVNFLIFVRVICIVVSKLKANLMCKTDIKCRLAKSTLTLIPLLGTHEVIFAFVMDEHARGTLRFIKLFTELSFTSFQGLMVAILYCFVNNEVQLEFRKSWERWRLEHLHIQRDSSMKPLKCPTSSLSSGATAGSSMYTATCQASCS

GLP-1R [3] = target: T1, GLP-1R; test: CRE-Luc cAMP responsive luciferase reporter assay in HEK293/CRE-Luc/hGLP1R cells; type: cell-based; design: engineered to express full-length human GLP1R (GenBank: AAI12127.1) (HEK293/CRE-Luc/hGLP1R); expressed in transfected cells; host or cells: HEK293/CRE-Luc (HEK293/FSC11/pCDNA3.1 + GLP1R, ACL6822); conditions: for Emax: HEK293, read-out: Emax (% GLP-1), CRE-dependent reporter activity, HEK293/CRE-Luc/hGLP1R
Text: To test the activity of GLP1R agonist linker-payloads (LPs) and anti-GLP1R antibody-tethered ligands (ATLs) of the invention, a cell-based cAMP responsive luciferase reporter assay was developed. To generate the assay cell line, the firefly luciferase gene was placed under the control of four copies of a cAMP response element (4×CRE) located upstream of a minimal promoter and transfected into HEK293 cells and referred to herein as HEK293/CRE-Luc cells. HEK293/CRE-Luc cells were then engineered to express full-length human GLP1R (GenBank: AAI12127.1) (HEK293/CRE-Luc/hGLP1R).
(§1) For all assays, cells were seeded into 384-well plates (Falcon #353988) at 6,000 cells/well in assay media (Opti-MEM, 1% FBS, 1×Penicillin-Streptomycin) and incubated overnight at 37° C. Serial dilutions of the anti-GLP1R ATLs and non-binding control ATLs were performed in assay media. Serial dilutions of linker-payloads (LPs) were performed in 100% DMSO (ATCC, #4-X-5), followed by 1:100 dilution in assay media. Test articles were added to cells (1:5 dilution) using VIAFLO 384 (Integra) with the last well in each serial dilution series serving as a blank control containing only assay media for ATLs or assay media with 0.2% DMSO for LPs. The blank was plotted as a continuation of the serial dilution.
For the CRE-Luc assay, after a 5-hours incubation at 37° C., luciferase activity was determined by addition of ONE-Glo reagent (Promega, #E6130) followed by measurement of relative light units (RLUs) on EnVision Plate Reader (Perkin Elmer).
(§2) EC50 values for luminescence assays were determined using a four-parameter logistic equation over a 12-point dose response curve (GraphPad Prism).

GLP-1R [4] = target: T1, GLP-1R; test: b-arrestin 2 recruitment enzyme fragment complementation assay in HEK293/b-arrestin2/hGLP1R cells; type: cell-based; design: The full-length human GLP1R (NP_002053.3) with a C-terminus fusion to a small b-gal fragment called enzyme donor or ProLink (PK); host or cells: HEK293/b-arrestin2-EA (HEK293/Barrestin clone 2C6/hGLP1R-Prolink1 high sorted, ACL21687)
Text: To test the recruitment of b-arrestin 1 and b-arrestin 2 to GLP1R upon receptor activation, two enzyme fragment complementation assays were developed. To generate the assay cell lines, b-arrestin 1 fused to the b-galactosidase (b-gal) reporter fragment called enzyme acceptor (EA) (i.e., b-arrestin1-EA) or b-arrestin 2 fused to the b-gal reporter fragment EA (i.e., b-arrestin2-EA) were transduced into HEK293 cells using PathHunter b-Arrestinl Retroparticles (DiscoverX, #83-OT-TB-N-01) or PathHunter b-Arrestin2 Retroparticles (DiscoverX, #93-1087), respectively. The full-length human GLP1R (NP_002053.3) with a C-terminus fusion to a small b-gal fragment called enzyme donor or ProLink (PK) (i.e., hGLP1R-PK) was then engineered into HEK293/b-arrestinl-EA cells and HEK293/b-arrestin2-EA cells to generate the cell lines referred herein as HEK293/b-arrestin1/hGLP1R and HEK293/b-arrestin2/hGLP1R. Recruitment of b-arrestin 1 or b-arrestin 2 to GLP1R in these reporter cell lines brings both b-gal fragments (EA and PK) into close proximity, leading to reconstitution of a fully functional enzyme capable of hydrolyzing a substrate and generating a chemiluminescent signal.
as §1
For b-arrestin 1 and b-arrestin 2 recruitment assays, after a 1-hour incubation at 37° C., PathHunter Detection Reagent (Eurofins DiscoverX, #93-0001) was added to the wells followed by a 1-hour incubation at room temperature. RLUs were measured on EnVision Plate Reader (Perkin Elmer).
as §2

[5] = target: GLP-1R of the cAMP assay of Tables 10, 14 and 15 (human, UniProt P43220 24-463, limits assumed); test: cell-based or functional assay
[6] = target: full-length human GLP1R (GenBank: AAI12127.1) expressed on HEK293/CRE-Luc/hGLP1R cells (human, UniProt P43220 24-463); test: cell-based or functional assay
[7] = metabolites of Q-M6009 at 4 hours in human liver S9
[8] = metabolites of Q-M3190 at 4 hours in human liver S9
[9] = HEK293, read-out: Emax (% GLP-1), b-Arrestin2 recruitment, HEK293/b-arrestin2/hGLP1R

C[C@@H](O)[C@H](NC(=O)CNC(=O)[C@H](Cc1nn[nH]n1)NC(=O)C(C)(C)C(=O)NCCc1cnc[nH]1)C(=O)N[C@@](C)(Cc1ccccc1F)C(=O)N[C@H](C(=O)N[C@@H](CO)C(=O)N[C@@H](CC(=O)O)C(=O)O)[C@@H](C)O [AA10-AA(-AA8-AA7-AA6-AA5-AA4-AA3]
Relative Abundance (% Total) [1, 7]: 0.21 % Total

CCc1cc(OCCCCn2cc(COCCOCCOCCOCCOCCOCCOCCOCCN)nn2)ccc1-c1ccc(C[C@H](NC(=O)[C@H](CC(=O)O)NC(=O)[C@H](CO)NC(=O)[C@@H](NC(=O)[C@](C)(Cc2ccccc2F)NC(=O)[C@@H](NC(=O)CNC(=O)[C@H](Cc2nn[nH]n2)NC(=O)C(C)(C)C(=O)NCCc2cnc[nH]2)[C@@H](C)O)[C@@H](C)O)C(=O)N[C@@H](CCCc2cc(C)cc(C)c2)C(N)=O)cc1 [M3190]
EC50 (GLP-1R [2]; Table 14, peptide amides, read-out: cAMP EC50): 0.318 nM | Relative Abundance (% Total) [1, 8]: 2.76 % Total | Emax (GLP-1R [3]): 96.3% | EC50 (GLP-1R [3]; HEK293/CRE-Luc/hGLP1R cells, independent experiments A, B, C, read-out: EC50 (M), CRE-dependent reporter activity, HEK293/CRE-Luc/hGLP1R): 5.76e-10 M | EC50 (GLP-1R [3]; HEK293/CRE-Luc/hGLP1R cells, read-out: CRE-dependent luciferase reporter activity EC50): 5.76e-10 M | Emax (GLP-1R [4]; [9]): 128% | EC50 (GLP-1R [4]; HEK293/b-arrestin2/hGLP1R cells, read-out: b-arrestin 2 recruitment EC50): 3.51e-08 M | Emax (GLP-1R [4]; read-out: b-arrestin 2 recruitment Emax relative to GLP-1, HEK293/b-arrestin2/hGLP1R cells): 128%

CCc1cc(OCCCCn2cc(COCCOCCOCCOCCOCCOCCOCCOCCNC(=O)CCC(N)C(=O)O)nn2)ccc1-c1ccc(C[C@H](NC(=O)[C@H](CC(=O)O)NC(=O)[C@H](CO)NC(=O)[C@@H](NC(=O)C(C)(Cc2ccccc2F)NC(=O)[C@@H](NC(=O)CNC(=O)[C@H](Cc2nn[nH]n2)NC(=O)C(C)(C)C(=O)NCCc2cnc[nH]2)[C@@H](C)O)[C@@H](C)O)C(=O)N[C@@H](CCCc2cc(C)cc(C)c2)C(N)=O)cc1 (stereo partly drawn) [M6067]
Relative Abundance (% Total) [1, 8]: 56.51 % Total

Cc1cc(OCCOCCOCCOCCOCCOCCOCCOCCN)ccc1-c1ccc(C[C@H](NC(=O)[C@H](CC(=O)O)NC(=O)[C@H](CO)NC(=O)[C@@H](NC(=O)C(C)(Cc2ccccc2F)NC(=O)[C@@H](NC(=O)CNC(=O)[C@H](Cc2nnn[nH]2)NC(=O)C(C)(C)C(=O)NCCc2cnc[nH]2)[C@@H](C)O)[C@@H](C)O)C(=O)O)cc1 (stereo partly drawn) [M6447]
EC50 (GLP-1R [3]): > 1e-06 M | Emax (GLP-1R [3]): 9.8% | CRE-dependent luciferase reporter activity (in words) (GLP-1R [3]; HEK293/CRE-Luc/hGLP1R cells): very weak activator of CRE-dependent luciferase reporter activity | Emax (GLP-1R [4]; [9]): 0.3% | b-arrestin 2 recruitment (in words) (GLP-1R [4]; HEK293/b-arrestin2/hGLP1R cells): recruited very low levels of b-arrestin 2 | EC50 (GLP-1R [4]; HEK293/b-arrestin2/hGLP1R cells, independent experiments A, B, read-out: EC50 (M), b-Arrestin2 recruitment, HEK293/b-arrestin2/hGLP1R): > 1e-06 M

CCc1cc(OCCCCn2cc(COCCOCCOCCOCCOCCOCCOCCOCCNC(=O)CC[C@H](N)C(=O)O)nn2)ccc1-c1ccc(C[C@H](NC(=O)[C@H](CC(=O)O)NC(=O)[C@H](CO)NC(=O)[C@@H](NC(=O)C(C)(Cc2ccccc2F)NC(=O)[C@@H](NC(=O)CNC(=O)[C@H](Cc2nn[nH]n2)NC(=O)C(C)(C)C(=O)NCCc2cnc[nH]2)[C@@H](C)O)[C@@H](C)O)C(=O)N[C@@H](CCCc2cc(C)cc(C)c2)C(=O)O)cc1 (stereo partly drawn) [Q-M6009]
GLP-1R CAMP Max (GLP-1R [2]; Table 10): 106.2% | EC50 (GLP-1R [2]; Table 10, read-out: GLP-1R CAMP EC50): 3.21 nM | Relative Abundance (% Total) [1, 8]: 38.40 % Total | Relative Abundance (% Total) [1, 7]: 79.84 % Total

B1: AA10-AA9-AA8-AA7-AA6-AA5-AA4-AA3-(LLQ-L)AA2-OH (peptide)
peptide: [AA10][AA9]GT[AA6]TSD[AA2]([Leu-Gln-Leu-Leu])-OH
modifications: reading uncertain; also: printed as AA10-AA9-AA8-AA7-AA6-AA5-AA4-AA3-(LLQ-L)AA2-OH
GLP-1R CAMP EC50 [5]: > 1000 nM | GLP-1R CAMP Max (%) [5]: 33.9%

B2: AA10-AA9-AA8-AA7-AA6-AA5-AA4-AA3-(Q-L)AA2-OH (peptide)
peptide: [AA10][AA9]GT[AA6]TSD[AA2]([Leu-Gln])-OH
modifications: reading uncertain; also: printed as AA10-AA9-AA8-AA7-AA6-AA5-AA4-AA3-(Q-L)AA2-OH
GLP-1R CAMP EC50 [5]: > 1000 nM | GLP-1R CAMP Max (%) [5]: 29.2%

B3: AA10-AA9-AA8-AA7-AA6-AA5-AA4-AA3-AA2-AA1-OH (peptide)
peptide: [AA10][AA9]GT[AA6]TXD[AA2][AA1]-OH
modifications: not fully specified (residue 7); printed as AA10-AA9-AA8-AA7-AA6-AA5-AA4-AA3-AA2-AA1-OH; also: AA2 azidobutoxy
GLP-1R CAMP EC50 [5]: 2.94 nM | GLP-1R CAMP Max (%) [5]: 122%

B4: LLQ-M6009 (AA10-AA9-AA8-AA7-AA6-AA5-AA4-AA3-(LLQ-L)AA2-AA1-OH) (peptide)
peptide: [AA10][AA9]GT[AA6]TSD[AA2]([Leu-Gln-Leu-Leu])[AA1]-OH
modifications: reading uncertain; also: printed as LLQ-M6009 (AA10-AA9-AA8-AA7-AA6-AA5-AA4-AA3-(LLQ-L)AA2-AA1-OH)
GLP-1R CAMP EC50 [5]: 13.4 nM | GLP-1R CAMP Max (%) [5]: 104%

B5: Q-M6009 (AA10-AA9-AA8-AA7-AA6-AA5-AA4-AA3-(Q-L)AA2-AA1-OH) (peptide)
peptide: XXGTXTSDXX-OH
modifications: not fully specified (residues 1, 2, 5, 9, 10); printed as Q-M6009 (AA10-AA9-AA8-AA7-AA6-AA5-AA4-AA3-(Q-L)AA2-AA1-OH)
GLP-1R CAMP EC50 [5]: 3.21 nM | GLP-1R CAMP Max (%) [5]: 106%

B6: AA10-AA9-AA8-AA7-AA6-AA5-AA4-AA3-AA2-OH (peptide)
peptide: [AA10][AA9]GT[AA6]TSDX-OH
modifications: not fully specified (residue 9); printed as AA10-AA9-AA8-AA7-AA6-AA5-AA4-AA3-AA2-OH
GLP-1R CAMP EC50 [5]: 51.2 nM | GLP-1R CAMP Max (%) [5]: 97.9%

B7: M6009 (AA10-AA9-AA8-AA7-AA6-AA5-AA4-AA3-(L)AA2-AA1-OH) (peptide)
peptide: [AA10][AA9]GT[AA6]TSD[AA2](Leu)[AA1]-OH
modifications: reading uncertain; also: also named NH2-PEG8-triazole-P8 acid, printed as M6009 (AA10-AA9-AA8-AA7-AA6-AA5-AA4-AA3-(L)AA2-AA1-OH)
GLP-1R CAMP EC50 [5]: 2.23 nM | GLP-1R CAMP Max (%) [5]: 140% | EC50 (M), CRE-dependent reporter activity, HEK293/CRE-Luc/hGLP1R [6]: 4.64e-10 M | Emax (% GLP-1), CRE-dependent reporter activity, HEK293/CRE-Luc/hGLP1R [6]: 92.1 % GLP-1
